From patent US12649750B2, “Macrocyclic compounds, compositions, and methods of using thereof” (Sionna Therapeutics Inc., priority 2022, dated 2026)

Columns and labels:
CFTR = target: T1, CFTR (Homo sapiens, UniProt P13569, DEL508-508); assay: TECC24 AUC fold over DMSO @10 μM, CFTR-mediated transepithelial chloride transport in CF-HBE cells; type: cell-based; conditions: test agent AUC divided by DMSO vehicle AUC, primary CF-HBE cells, ΔF508 homozygous donor, 48 hours incubation
T1 construct: Primary human bronchial epithelial cells from a ΔF508 homozygous CF donor; host or cells: primary human bronchial epithelial cells (CF-HBE), ΔF508 homozygous donor
T1 sequence (P13569 with tags, fused parts or gaps DEL508-508): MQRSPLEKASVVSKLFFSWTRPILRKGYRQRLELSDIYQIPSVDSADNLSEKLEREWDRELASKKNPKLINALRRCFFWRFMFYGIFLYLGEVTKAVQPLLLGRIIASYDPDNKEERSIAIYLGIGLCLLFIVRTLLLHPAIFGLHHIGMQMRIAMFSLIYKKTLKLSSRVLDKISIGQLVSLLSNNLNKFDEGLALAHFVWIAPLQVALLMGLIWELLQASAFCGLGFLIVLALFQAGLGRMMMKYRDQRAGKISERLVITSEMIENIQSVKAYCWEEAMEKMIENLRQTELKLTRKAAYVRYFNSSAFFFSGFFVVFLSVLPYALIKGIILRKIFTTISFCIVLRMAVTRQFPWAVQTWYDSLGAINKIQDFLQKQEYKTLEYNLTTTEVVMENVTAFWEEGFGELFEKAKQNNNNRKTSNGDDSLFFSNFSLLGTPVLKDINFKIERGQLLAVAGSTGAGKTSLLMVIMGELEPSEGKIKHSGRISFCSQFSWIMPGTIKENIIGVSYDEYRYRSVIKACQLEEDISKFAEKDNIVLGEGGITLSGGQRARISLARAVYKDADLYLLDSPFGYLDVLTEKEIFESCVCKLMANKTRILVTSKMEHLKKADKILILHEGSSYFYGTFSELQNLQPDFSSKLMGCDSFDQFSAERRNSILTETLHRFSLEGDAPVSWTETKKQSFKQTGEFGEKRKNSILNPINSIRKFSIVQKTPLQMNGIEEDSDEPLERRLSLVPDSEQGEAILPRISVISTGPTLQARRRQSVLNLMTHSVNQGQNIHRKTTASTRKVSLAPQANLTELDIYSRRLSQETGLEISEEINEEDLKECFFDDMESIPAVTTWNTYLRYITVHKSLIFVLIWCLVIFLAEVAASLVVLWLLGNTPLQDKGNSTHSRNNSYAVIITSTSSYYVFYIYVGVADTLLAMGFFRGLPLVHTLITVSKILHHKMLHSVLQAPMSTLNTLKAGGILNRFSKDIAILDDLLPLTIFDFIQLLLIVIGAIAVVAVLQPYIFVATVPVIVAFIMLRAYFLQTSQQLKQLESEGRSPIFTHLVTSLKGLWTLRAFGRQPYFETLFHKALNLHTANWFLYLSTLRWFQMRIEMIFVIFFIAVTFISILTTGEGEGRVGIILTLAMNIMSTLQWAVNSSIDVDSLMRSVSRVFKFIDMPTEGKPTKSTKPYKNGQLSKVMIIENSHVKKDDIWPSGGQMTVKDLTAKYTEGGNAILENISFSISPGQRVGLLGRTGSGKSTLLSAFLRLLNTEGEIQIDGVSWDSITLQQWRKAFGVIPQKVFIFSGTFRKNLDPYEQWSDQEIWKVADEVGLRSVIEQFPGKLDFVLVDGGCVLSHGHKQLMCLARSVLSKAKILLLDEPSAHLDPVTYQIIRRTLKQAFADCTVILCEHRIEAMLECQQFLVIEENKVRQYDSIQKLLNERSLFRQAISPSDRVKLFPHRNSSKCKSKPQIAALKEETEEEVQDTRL
In short: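 Value is ratio of test-agent to DMSO AUC of equivalent transepithelial Cl− current, integrated from forskolin (10 μM) stimulation to CFTR inhibitor-172 (20 μM) block, with benzamil 10 μM present. CF-HBE (ΔF508/ΔF508) cultures had 48 h compound exposure at 10 μM, 36.5° C before recording.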

NBD1 = target: T2, NBD1 (Homo sapiens, UniProt P13569); assay: Aggregation analysis using differential static light scattering (DSLS), thermal stability of NBD1 (ΔTagg); type: binding; conditions: ΔTagg versus DMSO control, NBD1 0.2 mg/ml
T2 construct: Purified recombinant NBD1 was produced using previously described methods; made in house
T2 sequence (P13569 423-646 limits assumed): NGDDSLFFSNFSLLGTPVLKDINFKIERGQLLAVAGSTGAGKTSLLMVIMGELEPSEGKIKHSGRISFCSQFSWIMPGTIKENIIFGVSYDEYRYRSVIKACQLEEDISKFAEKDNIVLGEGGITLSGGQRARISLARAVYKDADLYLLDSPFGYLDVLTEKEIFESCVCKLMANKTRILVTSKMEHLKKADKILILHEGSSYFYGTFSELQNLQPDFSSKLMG
In short: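 Differential static light scattering read from 25° C. to 70° C. every 0.5° C., ramp 1° C./min, on recombinant NBD1 (0.2 mg/ml; Tris/NaCl/MgCl2 buffer with 2 mM ATP, 2 mM DTT, pH 7.6, 1% glycerol) plus compound. Reported ΔTagg subtracts averaged DMSO Tagg from inflection-point Tagg; categories A ≤5, B >5-10, C >10-25° C.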

SMILES | TECC (AUC, 10 μM) (CFTR) | DSLS 3D (100 μM ΔT) (NBD1)
CC1(C)CS(=O)(=O)CCc2c(c(F)cc3[nH]ccc23)Oc2ccc(F)c(c2)-c2ccn(n2)C(c2cccc(CCC(=O)O)c2)CCO1 (single isomer, unassigned) [Compound 87A, 3-[3-(22,28-difluoro-10,10-dimethyl-12,12-dioxo-9,24-dioxa-12lambda6-thia-5,19,30-triazapentacyclo[23.3.1.12,5.015,23.016,20]-triaconta-1(29),2(30),3,15,17,20,22,25,27-nonaen-6-yl)phenyl]propanoic acid] | A (a TECC value less than 12 is marked “A”) | B (a value above 5 °C and less than or equal to 10 °C is marked “B”)
CC1(C)CS(=O)(=O)CCc2c(c(F)cc3[nH]ccc23)Oc2ccc(F)c(c2)-c2ccn(n2)C(c2cccc(CCC(=O)O)c2)CCO1 (single isomer, unassigned) [Compound 87B, 3-[3-(22,28-difluoro-10,10-dimethyl-12,12-dioxo-9,24-dioxa-12lambda6-thia-5,19,30-triazapentacyclo[23.3.1.12,5.015,23.016,20]-triaconta-1(29),2(30),3,15,17,20,22,25,27-nonaen-6-yl)phenyl]propanoic acid] | A (a TECC value less than 12 is marked “A”) | C (a value greater than 10 °C and less than or equal to 25 °C is marked “C”)
CCn1nc2nc1-c1cc(ccc1F)Oc1c(F)cc3[nH]ccc3c1CCS(=O)(=O)CC(C)(C)CCCC2(C)c1cccc(CCC(=O)O)c1 (single isomer, unassigned) [Compound 91A, 3-[3-(3-ethyl-22,28-difluoro-6,10,10-trimethyl-12,12-dioxo-24-oxa-12lambda6-thia-3,4,19,30-tetrazapentacyclo[23.3.1.12,5.015,23.016,20]triaconta-1(29),2(30),4,15,17,20,22,25,27-nonaen-6-yl)phenyl]propanoic Acid] | A (a TECC value less than 12 is marked “A”) | C (a value greater than 10 °C and less than or equal to 25 °C is marked “C”)
CCn1nc2nc1-c1cc(ccc1F)Oc1c(F)cc3[nH]ccc3c1CCS(=O)(=O)CC(C)(C)CCCC2(C)c1cccc(CCC(=O)O)c1 (single isomer, unassigned) [Compound 91B, 3-[3-(3-ethyl-22,28-difluoro-6,10,10-trimethyl-12,12-dioxo-24-oxa-12lambda6-thia-3,4,19,30-tetrazapentacyclo[23.3.1.12,5.015,23.016,20]triaconta-1(29),2(30),4,15,17,20,22,25,27-nonaen-6-yl)phenyl]propanoic Acid] | A (a TECC value less than 12 is marked “A”) | A (an ΔTagg value less than or equal to 5 °C is marked “A”)
Cn1nc2nc1-c1cccc(c1)Oc1c(F)cc3[nH]ccc3c1CCS(=O)(=O)CC(C)(C)CCCC2(C)c1cccc(CCC(=O)O)c1 (single isomer, unassigned) [Compound 95A, 3-[3-(22-fluoro-3,6,10,10-tetramethyl-12,12-dioxo-24-oxa-12λ6-thia-3,4,19,30-tetrazapentacyclo[23.3.1.12,5.015,23.016,20]triaconta-1(29),2(30),4,15,17,20,22,25,27-nonaen-6-yl)phenyl]propanoic Acid] | A (a TECC value less than 12 is marked “A”) | A (an ΔTagg value less than or equal to 5 °C is marked “A”)
Cn1nc2nc1-c1cccc(c1)Oc1c(F)cc3[nH]ccc3c1CCS(=O)(=O)CC(C)(C)CCCC2(C)c1cccc(CCC(=O)O)c1 (single isomer, unassigned) [Compound 95B, 3-[3-(22-fluoro-3,6,10,10-tetramethyl-12,12-dioxo-24-oxa-12λ6-thia-3,4,19,30-tetrazapentacyclo[23.3.1.12,5.015,23.016,20]triaconta-1(29),2(30),4,15,17,20,22,25,27-nonaen-6-yl)phenyl]propanoic Acid] | A (a TECC value less than 12 is marked “A”) | C (a value greater than 10 °C and less than or equal to 25 °C is marked “C”)
[2H]C([2H])([2H])C1(c2cccc(CCC(=O)O)c2)CCCC(C)(C)CS(=O)(=O)CCc2c(c(F)cc3[nH]ccc23)Oc2ccc(F)c(c2)-c2nc1nn2C (single isomer, unassigned) [Compound 96A, 3-[3-[22,28-difluoro-3,10,10-trimethyl-12,12-dioxo-6-(trideuteriomethyl)-24-oxa-12lambda6-thia-3,4,19,30-tetrazapentacyclo-[23.3.1.12,5.015,23.016,20]triaconta-1(29),2(30),4,15,17,20,22,25,27-nonaen-6-yl]phenyl]propanoic Acid] | A (a TECC value less than 12 is marked “A”) | C (a value greater than 10 °C and less than or equal to 25 °C is marked “C”)
[2H]C([2H])([2H])C1(c2cccc(CCC(=O)O)c2)CCCC(C)(C)CS(=O)(=O)CCc2c(c(F)cc3[nH]ccc23)Oc2ccc(F)c(c2)-c2nc1nn2C (single isomer, unassigned) [Compound 96B, 3-[3-[22,28-difluoro-3,10,10-trimethyl-12,12-dioxo-6-(trideuteriomethyl)-24-oxa-12lambda6-thia-3,4,19,30-tetrazapentacyclo-[23.3.1.12,5.015,23.016,20]triaconta-1(29),2(30),4,15,17,20,22,25,27-nonaen-6-yl]phenyl]propanoic Acid] | A (a TECC value less than 12 is marked “A”) | A (an ΔTagg value less than or equal to 5 °C is marked “A”)
Cn1nc2nc1-c1cc(ccc1F)Oc1c(F)cc3[nH]ccc3c1CCS(=O)(=O)CC(C)(C)CCCC2(C)c1cccc(CC(O)CO)c1 (single isomer, unassigned) [Compound 97A, 3-[3-(22,28-difluoro-3,6,10,10-tetramethyl-12,12-dioxo-24-oxa-12λ6-thia-3,4,19,30-tetrazapentacyclo[23.3.1.12,5.015,23.016,20]triaconta-1(29),2(30),4,15,17,20,22,25,27-nonaen-6-yl)phenyl]propane-1,2-diol] | A (a TECC value less than 12 is marked “A”) | C (a value greater than 10 °C and less than or equal to 25 °C is marked “C”)
Cn1nc2nc1-c1cc(ccc1F)Oc1c(F)cc3[nH]ccc3c1CCS(=O)(=O)CC(C)(C)CCCC2(C)c1cccc(CC(O)CO)c1 (single isomer, unassigned) [Compound 97B, 3-[3-(22,28-difluoro-3,6,10,10-tetramethyl-12,12-dioxo-24-oxa-12λ6-thia-3,4,19,30-tetrazapentacyclo[23.3.1.12,5.015,23.016,20]triaconta-1(29),2(30),4,15,17,20,22,25,27-nonaen-6-yl)phenyl]propane-1,2-diol] | A (a TECC value less than 12 is marked “A”) | A (an ΔTagg value less than or equal to 5 °C is marked “A”)
[2H]C([2H])([2H])C1(c2cccc(CCC(=O)O)c2)CCCC(C([2H])([2H])[2H])(C([2H])([2H])[2H])CS(=O)(=O)CCc2c(c(F)cc3[nH]ccc23)Oc2ccc(F)c(c2)-c2nc1nn2C (single isomer, unassigned) [Compound 98A, 3-[3-[22,28-difluoro-3-methyl-12,12-dioxo-6,10,10-tris(trideuteriomethyl)-24-oxa-12lambda6-thia-3,4,19,30-tetrazapentacyclo-[23.3.1.12,5.015,23.016,20]triaconta-1(29),2(30),4,15,17,20,22,25,27-nonaen-6-yl]phenyl]propanoic acid] | B (a value between 12-20 is marked “B”) | C (a value greater than 10 °C and less than or equal to 25 °C is marked “C”)
[2H]C([2H])([2H])C1(c2cccc(CCC(=O)O)c2)CCCC(C([2H])([2H])[2H])(C([2H])([2H])[2H])CS(=O)(=O)CCc2c(c(F)cc3[nH]ccc23)Oc2ccc(F)c(c2)-c2nc1nn2C (single isomer, unassigned) [Compound 98B, 3-[3-[22,28-difluoro-3-methyl-12,12-dioxo-6,10,10-tris(trideuteriomethyl)-24-oxa-12lambda6-thia-3,4,19,30-tetrazapentacyclo-[23.3.1.12,5.015,23.016,20]triaconta-1(29),2(30),4,15,17,20,22,25,27-nonaen-6-yl]phenyl]propanoic acid] | C (a value between 20 and 80 is marked “C”) | C (a value greater than 10 °C and less than or equal to 25 °C is marked “C”)
Cn1nc2nc1-c1cc(ccc1F)Oc1c(F)cc3[nH]ccc3c1Cc1ccn(n1)CCS(=O)(=O)CCC2(C)c1cccc(CCC(=O)O)c1 (single isomer, unassigned) [Compound 100A, 3-[3-(24,30-difluoro-3,6-dimethyl-9,9-dioxo-26-oxa-9λ6-thia-3,4,12,21,32,33-hexazahexacyclo[25.3.1.12,5.112,15.017,25.018,22]tritriaconta-1(31),2(33),4,13,15(32),17,19,22,24,27,29-undecaen-6-yl)phenyl]propanoic Acid] | A (a TECC value less than 12 is marked “A”) | C (a value greater than 10 °C and less than or equal to 25 °C is marked “C”)
